One experiment addresses T1, B. subtilis Pol IIIC (Bacillus subtilis, UniProt P13267).
T1 construct: made in house
Put plainly: Polymerase IIIC (Pol IIIC) assay, determination of Ki values. It is filed as biochemical. To be noted: Ki (µM) Pol IIIC, assay in absence of dGTP or dATP; Ki is the concentration that reduces control polymerase IIIC activity by 50 percent. The method, boiled down: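 Isolated B. subtilis Pol IIIC (0.025–0.06 units) run 10 min at 30°C in 30 mM Tris pH 7.5, 10 mM Mg acetate, 4 mM DTT, 20% glycerol. Substrates were 0.4 mg/ml activated calf thymus DNA, 25 µM dNTPs and 10 µM [3H]dTTP, with dGTP or dATP omitted per compound structure.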

Another experiment concerns B. subtilis. Put plainly: Minimal Inhibitory Concentration (MIC) determination, 96 well plates. It is filed as cell-based, Bacillus subtilis. To be noted: Bacillus subtilis; HBI medium, 16 to 18 hours at 37°C; read-out: MIC (µg/ml) B. subtilis. An outline of the steps: (§1)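 Broth growth in Heart-Brain Infusion medium, seeded at about 1x10^5 CFU/ml, 16 to 18 hours at 37°C. Growth read at OD 600 nm as percent of untreated control; five concentrations per drug, five data points each, MIC reported in µg/ml.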

The test system of a further experiment is S. aureus. Described as above. Type of experiment: cell-based, Staphylococcus aureus. The settings on record: Staphylococcus aureus; HBI medium, 16 to 18 hours at 37°C; read-out: MIC (µg/ml) S. aureus. An outline of the steps: (§2)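 Cultures seeded at approximately 1x10^5 CFU/ml in Heart-Brain Infusion medium were exposed to five compound concentrations, five data points each, for 16 to 18 hours at 37°C. Growth at OD 600 nm was expressed as percent of control, and MIC values are given in µg/ml.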

A further experiment deals with S.aureus (Smith). The experiment is described as above. Type of experiment: cell-based, Staphylococcus aureus. The settings on record: Staphylococcus aureus; HBI medium, 16 to 18 hours at 37°C; read-out: MIC (µg/ml) S.aureus (Smith). The method, boiled down: as §1
Another experiment concerns E. fecalis. The description is as above. To be noted: Enterococcus; HBI medium, 16 to 18 hours at 37°C; read-out: MIC (µg/ml) E. fecalis. Type of experiment: cell-based, Enterococcus fecalis. The method, boiled down: as §1
The subject of another experiment is E. fecium. The experiment is described as above. It is filed as cell-based, Enterococcus fecium. To be noted: Enterococcus; HBI medium, 16 to 18 hours at 37°C; read-out: MIC (µg/ml) E. fecium. An outline of the steps: as §1
A further experiment concerns E. coli. The description is as above. Type of experiment: cell-based, Escherichia coli. The settings on record: Escherichia coli; HBI medium, 16 to 18 hours at 37°C; read-out: MIC (µg/ml) E. coli. An outline of the steps:
as §2

In brackets after ≈: the same amount, converted by molar mass.

The source of these data is patent EP1401829B1, “NOVEL HETEROCYCLIC ANTIBACTERIAL COMPOUNDS” (Microbiotix, Inc., priority 2001, dated 2002).

The Ki is the dissociation constant of the complex between target and ligand, obtained from inhibition or displacement. Read a low Ki as a stronger hold on the target.

T1 sequence (P13267 whole entry): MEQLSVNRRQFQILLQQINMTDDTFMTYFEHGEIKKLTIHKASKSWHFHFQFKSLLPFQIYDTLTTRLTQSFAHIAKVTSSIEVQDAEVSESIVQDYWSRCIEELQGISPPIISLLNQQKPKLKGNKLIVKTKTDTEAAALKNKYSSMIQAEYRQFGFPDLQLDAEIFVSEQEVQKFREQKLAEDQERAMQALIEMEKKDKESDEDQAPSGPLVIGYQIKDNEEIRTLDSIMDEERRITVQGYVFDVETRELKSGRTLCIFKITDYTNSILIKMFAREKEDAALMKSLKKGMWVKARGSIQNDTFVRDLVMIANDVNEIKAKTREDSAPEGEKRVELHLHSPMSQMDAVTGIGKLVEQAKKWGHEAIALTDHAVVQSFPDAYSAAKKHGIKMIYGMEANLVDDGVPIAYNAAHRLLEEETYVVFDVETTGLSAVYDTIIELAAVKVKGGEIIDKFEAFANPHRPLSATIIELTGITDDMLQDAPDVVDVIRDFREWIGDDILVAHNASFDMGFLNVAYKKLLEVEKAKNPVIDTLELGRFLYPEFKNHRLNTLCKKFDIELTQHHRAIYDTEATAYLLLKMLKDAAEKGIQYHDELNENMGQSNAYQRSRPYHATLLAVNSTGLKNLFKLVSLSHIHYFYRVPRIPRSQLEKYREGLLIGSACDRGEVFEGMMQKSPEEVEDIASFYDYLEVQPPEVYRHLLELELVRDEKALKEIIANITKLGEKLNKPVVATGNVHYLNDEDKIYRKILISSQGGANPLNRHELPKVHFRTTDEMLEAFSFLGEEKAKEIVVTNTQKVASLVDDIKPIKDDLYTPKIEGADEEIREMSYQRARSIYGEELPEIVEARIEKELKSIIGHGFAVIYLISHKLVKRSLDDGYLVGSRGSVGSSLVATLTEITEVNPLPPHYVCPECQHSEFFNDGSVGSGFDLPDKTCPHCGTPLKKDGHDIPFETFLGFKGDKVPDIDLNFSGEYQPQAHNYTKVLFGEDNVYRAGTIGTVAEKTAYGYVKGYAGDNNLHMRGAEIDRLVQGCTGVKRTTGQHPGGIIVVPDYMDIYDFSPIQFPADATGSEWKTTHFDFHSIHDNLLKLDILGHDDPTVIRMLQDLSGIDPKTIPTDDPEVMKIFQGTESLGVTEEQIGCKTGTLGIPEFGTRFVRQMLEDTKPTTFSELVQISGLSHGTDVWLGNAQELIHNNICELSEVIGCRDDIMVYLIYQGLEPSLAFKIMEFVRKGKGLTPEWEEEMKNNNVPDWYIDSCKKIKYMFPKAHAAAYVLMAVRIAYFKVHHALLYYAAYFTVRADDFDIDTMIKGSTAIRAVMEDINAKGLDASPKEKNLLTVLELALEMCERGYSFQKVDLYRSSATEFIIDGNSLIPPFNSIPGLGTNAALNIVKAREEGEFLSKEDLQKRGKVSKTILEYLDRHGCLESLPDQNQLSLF

`CCc1cc(Nc2cc(=O)n(CCCCN3CCN(c4cc5c(cc4F)c(=O)c(C(=O)O)cn5-c4ccc(F)cc4F)CC3C)c(=O)[nH]2)ccc1C` (stereo not drawn) [Compound 89, 3-{4-[1-(1-{2,4-difluorophenyl}-3-carboxy-4-oxo-6-fluoro-7-quinolyl)-3-methyl-4-piperazinyl]butyl}-6-(3-ethyl-4-methylanilino)uracil] came in with a Ki at B. subtilis Pol IIIC of 0.018 µM. For the same compound, the MIC is 0.156 µg/mL (≈ 0.218 µM) in the experiment on B. subtilis; 0.313 µg/mL (≈ 0.437 µM) in the experiment on S. aureus; 0.156 µg/mL (≈ 0.218 µM) in the experiment on S.aureus (Smith); 0.625 µg/mL (≈ 0.872 µM) in the experiment with E. fecalis; 0.625 µg/mL (≈ 0.872 µM) in the experiment with E. fecium; more than 80 µg/mL in the experiment on E. coli.
In the case of `CCc1cc(Nc2cc(=O)n(CCCCN3CCN(c4cc5c(cc4F)c(=O)c(C(=O)O)cn5-c4ccc(F)cc4F)C[C@H]3C)c(=O)[nH]2)ccc1C` [Compound 90, (R)-3-{4-[1-(1-{2,4-difluorophenyl}-3-carboxy-4-oxo-6-fluoro-7-quinolyl)-3-methyl-4-piperazinyl]butyl}-6-(3-ethyl-4-methylanilino)uracil], on B. subtilis Pol IIIC, the affinity, expressed as Ki, was 0.017 µM. Besides, the MIC in the experiment on B. subtilis was 0.236 µg/mL (≈ 0.329 µM); in the experiment with S. aureus, 0.625 µg/mL (≈ 0.872 µM); with S.aureus (Smith), 0.313 µg/mL (≈ 0.437 µM); with E. fecalis, 1.25 µg/mL (≈ 1.74 µM); in the experiment on E. fecium, 1.25 µg/mL (≈ 1.74 µM); in the experiment with E. coli, more than 40 µg/mL.
Consider `CCc1cc(Nc2cc(=O)n(CCCCN3CCN(c4c(F)cc5c(=O)c(C(=O)O)cn(C6CC6)c5c4F)CC3CO)c(=O)[nH]2)ccc1C` (stereo not drawn) [Compound 91, 3-{4-[1-(1-cyclopropyl-3-carboxy-4-oxo-6,8-difluoro-7-quinolyl)-3-hydroxymethyl-4-piperazinyl]butyl}-6-(3-ethyl-4-methylanilino)uracil], for which, at B. subtilis Pol IIIC, the affinity, expressed as Ki, was 0.011 µM. Also, the MIC with B. subtilis is 0.235 µg/mL (≈ 0.346 µM); in the experiment with S. aureus, 1.25 µg/mL (≈ 1.84 µM); with S.aureus (Smith), 0.625 µg/mL (≈ 0.921 µM); in the experiment with E. fecalis, 2.5 µg/mL (≈ 3.68 µM); in the experiment on E. fecium, 2.5 µg/mL (≈ 3.68 µM); with E. coli, more than 80 µg/mL.
In turn, `CC1CN(c2c(F)cc3c(=O)c(C(=O)O)cn(C4CC4)c3c2F)CCN1CCCCn1c(=O)cc(Nc2ccc3c(c2)CCC3)[nH]c1=O` (stereo not drawn) [Compound 92, 3-{4-[1-(1-cyclopropyl-3-carboxy-4-oxo-6,8-difluoro-7-quinolyl)-3-methyl-4-piperazinyl]butyl}-6-(5-indanylamino)uracil] registered a Ki on B. subtilis Pol IIIC of 0.016 µM. The MIC with B. subtilis stood at 0.117 µg/mL (≈ 0.177 µM); in the experiment on S. aureus it was 0.313 µg/mL (≈ 0.474 µM); in the experiment with S.aureus (Smith), 0.235 µg/mL (≈ 0.356 µM); in the experiment on E. fecalis it was 0.625 µg/mL (≈ 0.946 µM); in the experiment with E. fecium, 0.937 µg/mL (≈ 1.42 µM); in the experiment on E. coli, 2.5 µg/mL (≈ 3.78 µM).
On B. subtilis Pol IIIC, `Cc1ccc(Nc2cc(=O)n(CCCCN3CCN(c4c(F)cc5c(=O)c(C(=O)O)cn(C6CC6)c5c4F)CC3C)c(=O)[nH]2)cc1C` (stereo not drawn) [Compound 94, 3-{4-[1-(1-cyclopropyl-3-carboxy-4-oxo-6,8-difluoro-7-quinolyl)-3-methyl-4-piperazinyl]butyl}-6-(3,4-dimethylanilino)uracil] gave a Ki of 0.026 µM. Besides, the MIC in the experiment on B. subtilis worked out at 0.156 µg/mL (≈ 0.24 µM); in the experiment on S. aureus it was 0.625 µg/mL (≈ 0.963 µM); in the experiment with S.aureus (Smith), 0.313 µg/mL (≈ 0.482 µM); in the experiment on E. fecalis, 1.25 µg/mL (≈ 1.93 µM); in the experiment on E. fecium, 2.5 µg/mL (≈ 3.85 µM); in the experiment with E. coli, 2.5 µg/mL (≈ 3.85 µM).
`CCc1cc(Nc2cc(=O)n(CCCCN3CCN(c4cc5c(cc4F)c(=O)c(C(=O)O)cn5C4CC4)C[C@H]3C)c(=O)[nH]2)ccc1C` [Compound 95, (R)-3-{4-[1-(1-cyclopropyl-3-carboxy-4-oxo-6-fluoro-7-quinolyl)-3-methyl-4-piperazinyl]butyl}-6-(3-ethyl-4-methylanilino)uracil] had a Ki at B. subtilis Pol IIIC of 0.012 µM. In addition, the MIC in the experiment with B. subtilis came out at 0.235 µg/mL (≈ 0.364 µM); with S. aureus it was 1.25 µg/mL (≈ 1.94 µM); in the experiment on S.aureus (Smith) it was 0.625 µg/mL (≈ 0.969 µM); in the experiment on E. fecalis, 0.625 µg/mL (≈ 0.969 µM); in the experiment with E. fecium, 0.625 µg/mL (≈ 0.969 µM); in the experiment on E. coli, 10 µg/mL (≈ 15.5 µM).
